Literature values as cited in PMC10895697 (JAC-Antimicrobial Resistance, 2024).
Values after ≈ are worked out from the molar mass of the structure shown.

Key:
S. aureus in osteoblasts = tested on: S. aureus in osteoblasts; set-up: method as in PMID 34423360; details: at 100x its MIC; cited from earlier work
S. aureus = tested on: S. aureus; set-up: method as in ref 11 (Chauvelot et al.); details: ref 11 (Chauvelot et al.); cited from earlier work

CN[C@H]1C(=O)N[C@@H]2Cc3ccc(cc3)Oc3cc4cc(c3O[C@@H]3O[C@H](C(=O)O)[C@@H](O)[C@H](O)[C@H]3NC(=O)CCCCCCCCC(C)C)Oc3ccc(cc3Cl)[C@@H](O)[C@@H]3NC(=O)[C@H](NC(=O)[C@@H]4NC(=O)[C@@H](NC2=O)c2cc(cc(O)c2Cl)Oc2cc1ccc2O)c1ccc(O)c(c1)-c1c(O[C@H]2O[C@H](CO)[C@@H](O)[C@H](O)[C@@H]2O)cc(O)cc1[C@@H](C(=O)NCCCN(C)C)NC3=O [dalbavancin]
peak of reduction of S. aureus in osteoblasts (S. aureus in osteoblasts): 51.6%
MIC (S. aureus): 0.125 mg/L (≈ 0.0688 µM)
